Test results reported in patent publication EP2522328A1, “Use of resveratrol and ascorbyl-2-glucoside” (DSM IP Assets B.V., priority 2011, dated 2012).

System: AZGP1
Assay: Assessment of gene modulation in normal human epidermal melanocytes (NHEM), RT-qPCR on mRNA (PCR array mQPA H-Melanocyte-64)
Format: cell-based
Conditions: ascorbyl-2-glucoside 1 mg/ml
Experimental: Normal human epidermal melanocytes were cultivated for 24 hours. […] Cells were cultivated for additional 72 hours. All experimental conditions were performed in triplicate. At the end of the cultivation, the cells were harvested and washed with phosphate buffered saline (PBS) solution and immediately frozen at -80 °C. The expression of selected markers was analyzed using RT-qPCR method on mRNA extracted from cells layer for each treatment condition. The differential expression analysis was performed by PCR arrays of the screening format "mQPA H-Melanocyte-64", which focuses on 64 genes selected for their importance in pigmentation and melanocyte biology. Total RNA was extracted from each sample using TRI-Reagent®. The amount and quality of the RNA was evaluated using a lab-on-a-chip Bioanalyzer (Agilent technologies). Potential contaminants traces of DNA were removed […] The incorporation of fluorescence in amplified DNA was measured continuously during the PCR cycles. […] The value selected for RE calculations is the "output point" (Ct) of the fluorescence curve. For a given marker, the highest is the cycle number; the lowest, is the mRNA quantity. The RE value is expressed in arbitrary units (AU) according to the equation: (((1)/(2)))^NC x 10^6 [formula] Where NC is the number of cycles.

SMILES: O=C1O[C@H]([C@@H](O)CO)C(O)=C1O[C@H]1O[C@H](CO)[C@@H](O)[C@H](O)[C@H]1O [Ascorbyl-2-glucoside, 2-O-[…]-D-glucopyranosyl-L-Ascorbic acid]
- activation at 1000 µg/mL (Homo sapiens, Melanocyte, NHEM cells, 72 hours treatment, resveratrol 5 µg/ml, combination 5 µg/ml + 1 mg/ml, read-out: expression ratio compared to control for the gene AZGP1): 3%
- down-regulation of AZGP1 (compared to untreated cells, NEHM cells, resveratrol 5 micrograms/ml, combination 5 microg/ml + 1mg/ml): no significant modulation
